Data published in patent publication US9765092B2, “Tricyclic piperidine compounds” (ACTELION PHARMACEUTICALS LTD, priority 2013, dated 2017).

What follows are compounds tested against human TPH1 (Homo sapiens (Human), UniProt P17752) (assay: Biochemical in vitro assay using fluorescence readout (TPH1 inhibition)). Details: not given.
human TPH1, sequence (P17752 whole entry): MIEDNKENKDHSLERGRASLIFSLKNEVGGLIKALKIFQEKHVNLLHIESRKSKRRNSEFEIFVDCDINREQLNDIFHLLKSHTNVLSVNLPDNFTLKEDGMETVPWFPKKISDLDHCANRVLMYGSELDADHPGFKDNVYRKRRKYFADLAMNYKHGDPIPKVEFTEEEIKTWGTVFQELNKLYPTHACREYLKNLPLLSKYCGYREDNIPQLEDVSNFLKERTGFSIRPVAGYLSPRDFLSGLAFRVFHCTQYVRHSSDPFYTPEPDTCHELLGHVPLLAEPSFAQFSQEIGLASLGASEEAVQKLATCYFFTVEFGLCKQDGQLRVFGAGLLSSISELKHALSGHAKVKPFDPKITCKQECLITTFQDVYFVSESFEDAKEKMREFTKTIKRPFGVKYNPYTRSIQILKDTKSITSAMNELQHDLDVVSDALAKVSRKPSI
Text: Biochemical In Vitro Assay Using Fluorescence Readout
To generate the enzyme, full length human TPH1 is cloned into the plasmid pET20b(+) (Novagen) and expressed in E. coli. The bacterial cells are ruptured by sonication on ice and the lysate is cleared by centrifugation. The resulting protein in the pellet is re-extracted and TPH1 is purified from the obtained lysate by affinity chromatography using a pterin cosubstrate analog immobilized to the resin of the column. The protein is further purified by size exclusion chromatography to remove protein aggregates. The activity of TPH1 is determined by using a fluorescence assay. The enzyme activity assay is carried out at 15° C. with atmosphere oxygen for the duration of 60 minutes in a volume of 64 μl. The reaction is carried out in a 0.1 M Tris-HCl buffer, adjusted to pH 7.6, containing 1 mM DTT, 0.2 mg/mL catalase, 100 μM (±)-6-methyl-5,6,7,8-tetrahydropterine dihydrochloride, 40 μM L-tryptophan, and 40-80 nM of TPH1. The reaction is started by bringing together L-tryptophan with all the other reaction substituents and stopped by quenching with perchloric acid (HClO4). The amount of 5-hydroxy-L-tryptophan produced during the enzymatic reaction is determined by fluorescence readout. Fluorescence, as determined at 540 nm when excited at 300 nm wavelength, increases proportionally to the 5-hydroxy-L-tryptophan formed. Compounds are prepared as 10 mM stock solution in DMSO, then diluted in 384-well plates using DMSO followed by a transfer of the dilutions into the assay plate. Fluorescence is measured for each well and the fluorescence at 540 nm wavelength is compared to the fluorescence of the vehicle in place of compound. Inhibitory activities of example compounds with respect to the TPH1 protein are determined by calculating the IC50 value (the concentration of compound needed to inhibit 50% of the enzyme activity). The calculated IC50 values may fluctuate depending on the daily biochemical assay performance. Fluctuations of this kind are known to those skilled in the art.
`CCc1nc(N2CCCS2(=O)=O)ccc1OCC(=O)N1CCc2nc3sc(C(F)(F)F)nn3c2C1c1ccc(Cl)cc1F` (stereo not shown) [Example 5.1.3, 1-(5-(4-chloro-2-fluorophenyl)-2-(trifluoromethyl)-7,8-dihydro-[1,3,4]thiadiazolo[2′,3′:2,3]imidazo[4,5-c]pyridin-6(5H)-yl)-2-((6-(1,1-dioxidoisothiazolidin-2-yl)-2-ethylpyridin-3-yl)oxy)ethanone] was tested, and the IC50 was 10 nM.

Same assay, conditions: full length human TPH1, 40 μM L-tryptophan, 15° C., 60 minutes, fluorescence at 540 nm; mean if determined several times
`Cc1nn2c3c(nc2s1)CCN(C(=O)COc1ccc(N2CCOCC2)nc1Cl)C3c1nc(N)sc1F` (stereo not shown) [Example 1.52.1, 1-(5-(2-Amino-5-fluorothiazol-4-yl)-2-methyl-7,8-dihydro-[1,3,4]thiadiazolo[2′,3′:2,3]-imidazo[4,5-c]pyridin-6(5H)-yl)-2-((2-chloro-6-morpholinopyridin-3-yl)oxy)ethanone] gave an IC50 of 6 nM.
Compound `Cc1nn2c3c(nc2s1)CCN(C(=O)COc1ccc(N)nc1Cl)C3c1ccc(Cl)cc1F` (stereo not shown) [Example 1.4.22, 2-((6-amino-2-chloropyridin-3-yl)oxy)-1-(5-(4-chloro-2-fluorophenyl)-2-methyl-7,8-dihydro-[1,3,4]thiadiazolo[2′,3′:2,3]imidazo[4,5-c]pyridin-6(5H)-yl)-ethanone] has an IC50 of 10 nM.
`Cc1nn2c3c(nc2s1)CCN(C(=O)COc1ccc(C(=O)NO)nc1Cl)C3c1ccc(Cl)cc1F` (stereo not shown) [Example 1.4.25, 6-Chloro-5-(2-(5-(4-chloro-2-fluorophenyl)-2-methyl-7,8-dihydro-[1,3,4]thiadiazolo[2′,3′:2,3]imidazo[4,5-c]pyridin-6(5H)-yl)-2-oxoethoxy)-N-hydroxy-picolinamide] gave an IC50 of 14 nM.

Same assay, conditions: human TPH1, fluorescence readout
With `Cc1nn2c3c(nc2s1)CCN(C(=O)COc1cccnc1C(F)(F)F)C3c1ccc(C2CC2)cc1F` (stereo not shown) [Example 1.6.13, 1-(5-(4-cyclopropyl-2-fluorophenyl)-2-methyl-7,8-dihydro-[1,3,4]thiadiazolo[2′,3′:2,3]imidazo[4,5-c]pyridin-6(5H)-yl)-2-((2-(trifluoromethyl)pyridin-3-yl)oxy)ethanone] the IC50 was 4 nM.
`CCc1ncccc1OCC(=O)N1CCc2nc3sccn3c2C1c1ccc(C(F)F)cc1F` (stereo not shown) [Example 6.16.1, 1-(5-(4-(difluoromethyl)-2-fluorophenyl)-7,8-dihydro-thiazolo[2′,3′:2,3]imidazo[4,5-c]pyridin-6(5H)-yl)-2-((2-ethylpyridin-3-yl)oxy)ethanone] was tested, and the IC50 was 14 nM.
For `Cc1cnc(C2c3c(nc4sc(C)nn34)CCN2C(=O)COc2ccc(C(F)(F)F)nc2Cl)c(F)c1` (stereo not shown) [Example 1.31.5, 2-((2-chloro-6-(trifluoromethyl)pyridin-3-yl)oxy)-1-(5-(3-fluoro-5-methylpyridin-2-yl)-2-methyl-7,8-dihydro-[1,3,4]thiadiazolo[2′,3′:2,3]imidazo[4,5-c]pyridin-6(5H)-yl)ethanone], the IC50 was 21 nM.
Work on `CCc1nc(NS(C)(=O)=O)ncc1OCC(=O)N1CCc2nc3sc(C)nn3c2C1c1sc(C)nc1C` (stereo not shown) [Example 1.68.9, N-(5-(2-(5-(2,4-dimethylthiazol-5-yl)-2-methyl-7,8-dihydro-[1,3,4]thiadiazolo[2′,3′:2,3]imidazo[4,5-c]pyridin-6(5H)-yl)-2-oxoethoxy)-4-ethylpyrimidin-2-yl)methanesulfonamide] yielded an IC50 of 66 nM.
With `Cc1ccc([C@H]2c3c(nc4sc(C)nn34)CCN2C(=O)COc2ccc(NS(C)(=O)=O)nc2Cl)c(F)c1` [Example 1.53.4] the IC50 was 8 nM.
Compound `CCc1cc(Cl)ccc1OCC(=O)N1CCc2nc3sccn3c2C1c1c(C)noc1C` (stereo not shown) [Example 6.5.5, 2-(4-chloro-2-ethylphenoxy)-1-(5-(3,5-dimethylisoxazol-4-yl)-7,8-dihydrothiazolo[2′,3′:2,3]imidazo[4,5-c]pyridin-6(5H)-yl)ethanone] has an IC50 of 135 nM.
`CCc1nc(C)ccc1OCC(=O)N1CCc2nc3sccn3c2C1c1ccc(C(F)F)cc1F` (stereo not shown) [Example 6.16.2, 1-(5-(4-(difluoromethyl)-2-fluorophenyl)-7,8-dihydro-thiazolo[2′,3′:2,3]imidazo[4,5-c]pyridin-6(5H)-yl)-2-((2-ethyl-6-methylpyridin-3-yl)oxy)ethanone] showed an IC50 of 8 nM.
`Cc1nn2c3c(nc2s1)CCN(C(=O)COc1ccc(C(F)(F)F)nc1Cl)C3c1sccc1F` (stereo not shown) [Example 1.23.3, 2-((2-chloro-6-(trifluoromethyl)pyridin-3-yl)oxy)-1-(5-(3-fluorothiophen-2-yl)-2-methyl-7,8-dihydro-[1,3,4]thiadiazolo [2′,3′:2,3]imidazo[4,5-c]pyridin-6(5H)-yl)ethanone] was tested, and the IC50 was 20 nM.
`Cc1nc(C)c(C2c3c(nc4sc(C)nn34)CCN2C(=O)COc2ccc(-c3ncco3)nc2Cl)s1` (stereo not shown) [Example 1.68.3, 2-((2-chloro-6-(oxazol-2-yl)pyridin-3-yl)oxy)-1-(5-(2,4-dimethylthiazol-5-yl)-2-methyl-7,8-dihydro-[1,3,4]thiadiazolo[2′,3′:2,3]imidazo[4,5-c]pyridin-6(5H)-yl)ethanone] was tested, and the IC50 was 9 nM.
In the case of `Cc1nn2c3c(nc2s1)CCN(C(=O)COc1ccc(NS(C)(=O)=O)nc1Cl)C3c1ccc(C2CC2)cc1F` (stereo not shown) [Example 1.6.26, N-(6-chloro-5-(2-(5-(4-cyclopropyl-2-fluorophenyl)-2-methyl-7,8-dihydro-[1,3,4]thiadiazolo[2′,3′:2,3]imidazo[4,5-c]pyridin-6(5H)-yl)-2-oxoethoxy)pyridin-2-yl)methanesulfonamide], the IC50 is reported as 12 nM.
In the case of `Cc1nn2c3c(nc2s1)CCN(C(=O)COc1cnc(C(F)(F)F)nc1Cl)C3c1ccc(Cl)cc1F` (stereo not shown) [Example 1.4.36, 2-((4-chloro-2-(trifluoromethyl)pyrimidin-5-yl)oxy)-1-(5-(4-chloro-2-fluorophenyl)-2-methyl-7,8-dihydro-[1,3,4]thiadiazolo[2′,3′:2,3]imidazo[4,5-c]pyridin-6(5H)-yl)ethanone], the IC50 is reported as 38 nM.
For `Cc1nn2c3c(nc2s1)CCN(C(=O)COc1ccc(C#N)nc1Cl)C3c1ccc(Cl)cc1F` (stereo not shown) [Example 1.4.9, 6-chloro-5-(2-(5-(4-chloro-2-fluorophenyl)-2-methyl-7,8-dihydro-[1,3,4]thiadiazolo[2′,3′:2,3]imidazo[4,5-c]pyridin-6(5H)-yl)-2-oxoethoxy)picolinonitrile], the IC50 was 36 nM.
For `CCOC(=O)c1ncc(C2c3c(nc4sc(C)nn34)CCN2C(=O)COc2ccc(C#N)cc2Cl)s1` (stereo not shown) [Example 1.30.3, Ethyl 5-(6-(2-(2-chloro-4-cyanophenoxy)acetyl)-2-methyl-5,6,7,8-tetrahydro-[1,3,4]thiadiazolo[2′,3′:2,3]imidazo[4,5-c]pyridin-5-yl)thiazole-2-carboxylate], the IC50 was 371 nM.
In the case of `CNC(=O)c1ccc(OCC(=O)N2CCc3nc4sc(C)nn4c3C2c2ncccc2F)c(Cl)n1` (stereo not shown) [Example 1.35.3, 6-chloro-5-(2-(5-(3-fluoropyridin-2-yl)-2-methyl-7,8-dihydro-[1,3,4]thiadiazolo[2′,3′:2,3]imidazo[4,5-c]pyridin-6(5H)-yl)-2-oxoethoxy)-N-methylpicolinamide], the IC50 is reported as 29 nM.
`CNC(=O)c1cc(F)c(C2c3c(nc4sc(C)nn34)CCN2C(=O)COc2cc(F)cnc2Cl)s1` (stereo not shown) [Example 1.25.9, 5-(6-(2-((2-chloro-5-fluoropyridin-3-yl)oxy)acetyl)-2-methyl-5,6,7,8-tetrahydro-[1,3,4]thiadiazolo[2′,3′:2,3]imidazo[4,5-c]pyridin-5-yl)-4-fluoro-N-methylthiophene-2-carboxamide] showed an IC50 of 47 nM.
